The METLIN SMRT retention time set (Domingo-Almenara et al. 2019)

Assay: gradient 5% acetonitrile 3 min, to 50% in 2 min, to 85% in 15 min, held 3 min, 100 µL/min
Conditions: column: Zorbax Extend-C18 2.1 x 50 mm; eluents: water / acetonitrile, 0.1% formic acid
Summary of the method: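 In both positive and negative ionization mode, a quadrupole time-of-flight mass spectrometer coupled to HPLC analyzed pure standards run in mixtures of ~100 molecules. The Zorbax Extend-C18 column (2.1 × 50 mm, 1.8 μm) was operated at 100 μL/min with water and acetonitrile, each containing 0.1% formic acid. The dead volume was 40 μL and the dwell volume 900 μL. Retention time came from adduct peaks that were computationally picked and individually inspected by hand.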

Row | Structure (SMILES) | RP-LC retention time [s]
1 | O=C(c1ccc(C(F)(F)F)s1)N1C[C@@H]2C[C@H]1C[C@@H]2NS(=O)(=O)c1cccs1 | 813
2 | COc1ccccc1CCC(=O)N1CCCn2nc(-c3ccc(C)cc3)cc2C1 | 1020
3 | Cc1c(Cl)cccc1NC(=O)N1CCC(n2cnc3ccccc3c2=O)CC1 | 791
4 | CCCN1CC(Oc2ccc(-c3noc(C4CC4)n3)cc2)C1 | 653
5 | COc1ccc(S(=O)(=O)N2CCCC(C(=O)NCc3cccnc3)C2)cc1OC (stereo not given) | 591
6 | CCCc1cc(N2CCN(c3ccccn3)CC2)n2nc(C)c(-c3ccccc3)c2n1 | 758
7 | CCc1noc(C2CCCCN2Cc2nc(-c3cccnc3)no2)n1 (stereo not given) | 821
8 | O=C(Nc1ccccc1C(F)(F)F)N1CCC(n2cnnc2C2CC2)C1 (stereo not given) | 640
9 | Cc1ccc(Nc2c(-c3cc(Br)ccc3O)nc3ncccn23)c(C)c1 | 1120
10 | CCOCCCNC(=O)N1CCN(c2nc3ccccc3n(Cc3ccccc3)c2=O)CC1 | 914
11 | CCc1noc(COC2CCCN(C(=O)NCCc3ccccc3)C2)n1 (stereo not given) | 796
12 | O=C(C1CCN(S(=O)(=O)c2ccc(-c3noc(C4CC4)n3)cc2)CC1)N1CCOCC1 | 805
13 | Oc1ccc(Br)cc1CN1CCN(c2cc(-c3ccncc3)[nH]n2)CC1 | 526
14 | CCCNC(=O)C1CCN(S(C)(=O)=O)c2cc(Cl)ccc2O1 (stereo not given) | 747
15 | Cc1ccc2c(Sc3ccc(Cl)cc3)c(C(=O)N3CCN(c4ccccn4)CC3)[nH]c2c1 | 894
16 | CC(C)CCNC(=O)C1(C)CN(S(=O)(=O)c2ccccc2)CC(=O)N1Cc1ccccc1 (stereo not given) | 973
17 | O=c1n(Cc2ccc(F)cc2)nc2ccc(S(=O)(=O)N3CCCC3)cn12 | 855
18 | COc1cccc(-n2c(N3CCCC(C(=O)NC4CC4)C3)nc3ccsc3c2=O)c1 (stereo not given) | 710
19 | Cc1ccc(S(=O)(=O)NCCn2ncccc2=O)s1 | 637
20 | Cc1nn(-c2ccc(C(=O)N3CCN(c4ccccn4)CC3)cc2)c2c1C(=O)CCC2 | 574
21 | O=C(CCC1CCCN(C(=O)Nc2ccc(Cl)cc2)C1)NCc1ccccc1 (stereo not given) | 884
22 | CCOCC(=O)N1CCC(Oc2nccnc2N(C)C)C1 (stereo not given) | 616
23 | O=C(NCc1ccc(F)cc1Cl)C1=C2CCCN2c2ccccc2S1(=O)=O | 913

Row | Structure (SMILES) | RP-LC retention time [s]
24 | N#Cc1ccc(C(=O)N2CC(n3cc(C(=O)NCC4CC4)nn3)C2)cc1 | 701
25 | CC(=O)c1cccc(NC(=O)c2cn(C)cc3c(=O)n(-c4ccccc4)nc2-3)c1 | 826
26 | CCc1cc(=O)n(CC(=O)Nc2ccc(C)cc2Cl)c(N2CCOCC2)n1 | 942
27 | Cc1ccc(NC(=O)C2CC(=O)N(c3ccc4oc(C)nc4c3)C2)c(F)c1 (stereo not given) | 741
28 | CC(=O)Nc1ccc(NC(=O)c2ccc3noc(-c4ccc(Cl)cc4)c3c2)cc1 | 817
29 | COCCNC(=O)N1CCN(Cc2nc3cc(C(=O)N(C)C)ccc3o2)CC1 | 559
30 | O=S(=O)(Cc1ccccc1)N1CCC(OC2CCN(Cc3cccnc3)CC2)CC1 | 615
31 | COc1cccc(-c2csc(-c3nnn(-c4cccc(OC)c4)c3N)n2)c1 | 1110
32 | Cc1ccc(-c2noc(Cn3cnc4c(cnn4-c4ccc(C(C)C)cc4)c3=O)n2)cc1C | 1330
33 | O=C(NC1CCCCCC1)c1cccc(Cn2cncn2)c1 | 729
34 | COCCC1CCN(C(=O)CN(C)C(=O)COc2ccccc2)CC1 | 694
35 | O=C(NC1CCc2nnc(C3CC3)n2CC1)c1cnco1 (stereo not given) | 537
36 | COCc1nnc(C(=O)Nc2ccc(C(=O)NCCc3c[nH]c4ccc(Cl)cc34)cc2)s1 | 893
37 | Cc1noc(-c2nn(C)c3c2CN(C(=O)Nc2ccccc2Cl)CC3)n1 | 725
38 | CC(C)CN1CCN(C(=O)c2nnc(-c3ccc(S(=O)(=O)N(C)C)cc3)o2)CC1 | 608
39 | CCC(=O)N1CCc2c(sc3ncnc(NCCc4ccccc4)c23)C1 | 834
40 | COc1ccc(-c2nnc(-c3ccc(-n4ccnc4)nc3)o2)cc1 | 654
41 | Cc1ccc(-c2ncccc2CNS(=O)(=O)c2cccc(Cl)c2)cc1 | 766
42 | O=C(NCCCN1CCCCC1)c1ccc2c(c1)nc1n2CCN(C2CCCCC2)C1=O | 621
43 | COc1ccc(C(O)CN2CCN(c3cccc(OC)c3)CC2)cc1 (stereo not given) | 647
44 | Cc1cc(C)c(NS(=O)(=O)c2cc(-c3nc(C)cs3)sc2C)c(C)c1 | 1190
45 | CC1CCN(C(=O)C2CCN(c3nc4ccc(-c5ccccc5F)nc4s3)CC2)CC1 | 1170
46 | O=C(O)Cn1c(C(=O)Nc2nc(-c3ccccc3Cl)cs2)cc2ccccc21 | 1130

Row | Structure (SMILES) | RP-LC retention time [s]
47 | COc1ccc2c(=O)oc3c(OC)cc(CCN(C)C)c4c(=O)oc1c2c34 | 689
48 | O=c1ccc(N2CCCN(S(=O)(=O)c3ccc(F)c(F)c3)CC2)nn1-c1ccccc1 | 861
49 | CCCn1cc(S(=O)(=O)Nc2ccc(OC)cc2)c2cccnc21 | 886
50 | O=C1CC(c2noc(-c3ccccc3)n2)CN1c1ccc(Cl)cc1 (stereo not given) | 1040
51 | COc1c(NC=O)c2c(c([N+](=O)[O-])c1OC)C(=O)OC2 | 760
52 | Nc1nc(Cl)cc(Nc2ccccc2Cl)n1 | 845
53 | O=C(Nc1ccc(Cl)cc1F)C1CCN(c2nccnc2Sc2ccccc2)CC1 | 1190
54 | COc1ccc(C(=O)NCCS(=O)(=O)NCc2cccnc2)cc1 | 547
55 | CCc1nc(-c2ccc(-c3noc(COc4ccccc4)n3)cc2)cs1 | 1290
56 | Cc1oc(-c2ccc(NC(=O)c3ccc4c(c3)OCO4)cc2)nc1Cn1cccn1 | 822
57 | Cc1noc(C)c1CN1CC2(CCCCC2)CC1COc1ccncc1 (stereo not given) | 637
58 | COCCNS(=O)(=O)c1cccc(-c2nnc(-c3ccc(C)cc3)o2)c1 | 880
59 | CC(=O)c1ccc(OC(=O)c2cc3c(C)nn(-c4cccc(F)c4)c3s2)cc1 | 779
60 | O=C1CCCCC(CNC(=O)c2cnccn2)N1 (stereo not given) | 577
61 | Cc1[nH]c(C(=O)N2CCC(CC(=O)NCCN3CCCCC3)CC2)c(C)c1C | 604
62 | Cc1cnc(C2CCC2)n1CC1CCCN(Cc2cn(C)c3ccccc23)C1 (stereo not given) | 583
63 | O=C(NCCCc1ccccc1)C(=O)NCc1n[nH]c(=O)c2ccccc12 | 746
64 | COc1ccc(-c2noc(CN3C(=O)C(C)Oc4ccccc43)n2)c(OC)c1 (stereo not given) | 956
65 | CNc1ncnc2c1cnn2C1CCCCO1 (stereo not given) | 635
66 | Cc1ccc(CN2CCN(C3CCN(C(=O)Nc4ccc(F)cc4F)CC3)C(=O)C2=O)cc1 | 748
67 | CC(C)Oc1ccc(C(=O)N2CCC3(CC2)C(=O)N(C)c2ccccc23)cc1 | 930
68 | CCOc1ccc(NC(=O)N2CCC3(CC2)NC(=O)c2cc(Cl)ccc2N3C)cc1 | 858
69 | COCCC(=O)N1CC(F)(F)C[C@H]1c1nc(COC)no1 | 649

Row | Structure (SMILES) | RP-LC retention time [s]
70 | CCn1c(CCc2ccccc2NS(=O)(=O)c2ccc3c(c2)OCCO3)nc2ccccc21 | 717
71 | Cc1ccc(NC(=O)C2CCN(C(=O)C3Sc4ccccc4NC3=O)CC2)cc1C (stereo not given) | 818
72 | O=C(Nc1nc(-c2ccc(F)cc2)cs1)C1CC1 | 884
73 | O=C(Nc1ccc(Cl)cc1)N1CCN(CCn2cnc3cccnc32)CC1 | 604
74 | CCS(=O)(=O)c1cccc(-c2cc(C(=O)NC3CCN(C)CC3)c(C)c3[nH]c4ncc(C)cc4c23)c1 | 645
75 | O=C(NCc1noc(CCc2ccccc2)n1)c1ccc(-c2noc(C3CC3)n2)cc1 | 977
76 | CC(NC(=O)C(=O)c1c[nH]c2ccccc12)c1ccccc1 (stereo not given) | 924
77 | CC(C)(C)NC(=O)N1CCC(CNC(=O)c2cccs2)CC1 | 655
78 | CCN1CCCn2cc(S(=O)(=O)N3CCOCC3)cc2C1=O | 614
79 | COCC(=O)NC1CCC12CCN(C(=O)CC(C)C)CC2 (stereo not given) | 675
80 | CCOC(=O)C1CCN(c2ncnc3c2cnn3-c2cccc(C)c2)CC1 | 1080
81 | CS(=O)(=O)c1ccc(CC(=O)Nc2cccc3ccccc23)cc1 | 710
82 | COc1cccc(-c2noc(C3CCCN3C(=O)NCc3ccco3)n2)c1 (stereo not given) | 615
83 | CC(=O)c1cccc(NC(=O)CN2C(=O)C3CCCCN3c3ccc(C(=O)N4CCCC4)cc32)c1 (stereo not given) | 780
84 | CC1=NS(=O)(=O)N(Cc2ccccc2)C=C1C(=O)OCc1cccc(C)c1 | 1140
85 | Cc1nc(C)c(C(=O)N2CCCn3cc(-c4ccccc4F)nc32)s1 | 679
86 | O=C(NCc1ccccn1)C1CCN(c2ncnc3c2oc2ccccc23)CC1 | 593
87 | O=C(NC(c1ccccc1)c1nnc(N2CCCC2)o1)c1ccc(F)c(Cl)c1 (stereo not given) | 899
88 | Cc1cccc(-c2noc(Cn3ncn4nc(-c5ccc(C)cc5C)cc4c3=O)n2)c1 | 878
89 | CCOc1cccc(CNS(=O)(=O)c2cc(-c3nc(C(C)(C)C)cs3)cs2)c1 | 1270
90 | CCOC(=O)CCC(=O)Nc1ccc(S(=O)(=O)N2CCc3ccccc32)cc1 | 834
